Measured values reported in patent US11129782B2, “Derivatives of PPD useful for coloring hair and skin” (National University of Singapore, priority 2017, dated 2021).
Several values for one entry are separate records, joined by “and”; a condition that tells them apart may be missing. Equal values may be shown once. Read-outs that look alike come from different tables or passages of the source.

What was measured:
[1] = system: cysteine peptide (Ac-RFAACAA-COOH); assay: Direct Peptide Reactivity Assay, cysteine peptide; conditions: for % of Cysteine depletion, Avg / % of Cysteine depletion, Rep 2 / % of Cysteine depletion, Rep 3 / Reactivity Class: 1:10; for % of Cysteine depletion, Rep 1: peptide 0.02 mM : test chemical 0.2 mM (1:10); for Reactivity Class: cysteine
Method: For cysteine DPRA, an additional step was performed.
(§1) The mass spectrometric analysis was performed by use of a AB SCIEX QTRAP 5500 tandem mass spectrometry (MS/MS) system (AB SCIEX, Framingham, Mass., USA) operating in triple quadrupole positive mode (ESI+) equipped with an AB Sciex Turbo Ion Spray interface. Acquisition and analysis of data were performed with Analyst software ver. 1.6.2 (Applied Biosystems).

IL-8 = IL-8 ELISA on THP-1 cell supernatants; assay type: cell-based, human; conditions: preliminary ELISA, CV75
Method: (§2) For cytokine profiling in THP-1, supernatants from wells were collected and then used for cytokine analysis by a Chemokine immunosorbent assay Bio-legend ELISA Max kit. The levels of available IL-8 protein from THP-1 cell supernatants was estimated using this kit which are regulated upon activation of THP-1 model. Surface receptor expression of human CD-86, CD-54, MHC-I and IL-T3 were analyzed by flow cytometry using standard BD FACS analyzer with PE and FITC fluorescent labeled antibodies from Biolegend and e Bioscience.
(§3) In order to understand the effect of modified PPD hairdyes on THP-1 immune sensitization, a certain degree of Cytotoxicity at CV75% viable where 25% cell death is required before evaluation of supernatants in THP-1 models for expression of cytokine IL-8 and receptor expression of CD86, CD54, MHC-I and IL-T3 surface receptors upon treatment with standard PPD and modified hair dye compounds. Most allergens show a specific dose-dependent alteration of CD86 and/or CD54 expression or secretion of cytokine profiles. But depending on chemical, the alteration pattern may vary.

[2] = system: lysine peptide (Ac-RFAAKAA-COOH); assay: Direct Peptide Reactivity Assay, lysine peptide; conditions: for % of Lysine depletion, Avg / % of Lysine depletion, Rep 2 / % of Lysine depletion, Rep 3 / Reactivity Class: 1:50; for % of Lysine depletion, Rep 1: peptide 0.02 mM : test chemical 1 mM (1:50); for Reactivity Class: lysine
Method: as §1

HaCaT cells = assay: In vitro cell cytotoxicity (MTT) assay on HaCaT cells; assay type: cell-based, human; conditions: for IC50: 72 h incubation, MTT
From the text: HaCaT (human, adult, low calcium, high temperature, human adult skin keratinocytes) cells were obtained from the IMB (Institute of Medical Biology) Skin Cell Bank. Fetal bovine serum (FBS), Dulbecco's minimum essential medium (DMEM) and trypsin EDTA solution were purchased from GE healthcare life sciences, Utah. Penicillin/streptomycin, dimethyl sulfoxide (DMSO), and phosphate buffered saline (PBS) were from Fisher Scientific (Singapore). Para-phenylenediamine (PPD) was purchased from Sigma Aldrich (Singapore). PPD analogues such as Dimer, trimer, ethyl hexyl para-phenylenediamine (EHPPD), hexyl para-phenylenediamine (HPPD), Bandrowski base (BB) were synthesized in house.
Cell viability was essentially determined using the MTT assay as described in the literature. The HaCaT cells were grown in DMEM with 10% FBS and 1% penicillin/streptomycin. The cells in T-75 cm^2 culture flasks were incubated with 5% CO2 at 37° C. in a humidified incubator. The HaCaT cells were grown to expected confluency and then they were harvested by trypsinizing the cell with 0.25% trypsin/EDTA and incubated at 37° C. for 5 min to obtain the complete cell detachment. After the incubation, cell pellets were resuspended, and washed twice with 1×PBS. The cell suspension in 1×PBS was counted and adjusted to 1×10^5/mL. A HaCaT keratinocyte suspension (100 μL in 1×PBS) with a cell concentration of 1×10^5 cells/mL) and a test solution (100 μL in milli-Q water) were combined in each well of two 96-well plates. Test solutions with a desired concentration were prepared by serial dilutions of the stock solutions with 1×PBS.
For the cytotoxicity experiment, cells were seeded at a density of 5×10^3 in 200 ul of medium into each well of 96-well plates. Cells were seeded as three sets of four replicates for each concentration. After 24 h of incubation, the cells were washed with PBS and cultured for 72 h with 200 ul of 10% FBS containing DMEM medium, together with the different concentrations of the test compounds ranging from 500 μM to 1.9 μM for PPD and analogues 1-5 and standard in a serial dilution. Then the medium was removed and 100 μl of MTT [3-(4,5-dimethylthiazol-2yl)-2,5-diphenyl-2H-tetrazolium bromide](1 mg/ml) (Alfa Aesar, Singapore) in PBS was added. At the end of 4 h incubation, the plates were removed from the incubator and plates were shaken for 5 min. The absorbance at 570 nm was determined using Bio-Tek plate reader. The cell viability rates were calculated from absorbance readings and represented as percentages of control value (untreated cells).

[3] = Solubility observed when preparing dyes; assay type: physicochemical; conditions: water / organic solvents
[4] = system: cysteine and lysine peptides; assay: Direct Peptide Reactivity Assay, mean of cysteine and lysine depletion (FIG. 12); conditions: for Sensitizing potential predicted from mean peptide depletion: cysteine 1:10 / lysine 1:50 model; for Mean peptide depletion: mean of cysteine (1:10) and lysine (1:50), FIG. 12
Method: (§4) Direct reactivity of test chemical to lysine-based synthetic peptide was determined in reactions containing 100 mM ammonium acetate buffer (pH 10.2). The final concentration of lysine peptide was 20 μM in a final reaction volume of 0.3 ml. Direct reactivity of test chemicals to cysteine-based synthetic peptide was determined in 100 mM Sodium Phosphate buffer of pH 7.5.
(§5) For the DPRA, incubation mixtures were prepared using each peptide to test compound ratios of both 1:10 for cysteine peptide and 1:50 for lysine peptide, according to Table 19. […] Sample reactions were initiated by adding 3 μl of a test chemical stock solution for cysteine and 15 μl stock solution for lysine peptide. These mixtures were then placed in a temperature-controlled shaking incubator at 25° C.
(§6) At each time point (20 mins/24 hours), the incubation mixtures were quenched with 75 μL of 95% ACN/H2O, and mildly vortexed (600 rpm, 3 seconds). For Lysine DPRA experiment, 10 μl of aliquot was diluted with 2% ACN/H2O, vortexed and stored at −80° C. until analysis by LC-MS/MS. For cysteine DPRA, an additional step was performed. 10 μl of cysteine reaction mixture, at time points 20 min and 24 h were diluted in 180 μl of 2% ACN/H2O. To which, a 10 μl aliquot of a 16 mM dithiothreitol solution (prepared in water) was then added, and samples were heated in a 45° C. oven for 30 min, then allowed to cool to room temperature prior to analysis. The peptide depletion (PD) percentage was obtained using this equation.

[5] = system: cysteine and lysine peptides
Method: as §4, §5, §6

ILT3 = ILT3 surface expression on THP-1 by flow cytometry; assay type: cell-based, human; conditions: in comparison to DCNB
Method: as §2, §3

[6] = Skin permeation in vertical Franz diffusion cells; assay type: in vitro ADME, porcine; conditions: 8 h; for recovery at 8 h, 1 % w/v: pig, read-out: % Parent compound Recovery (mean); for Penetration profile PPD vs derivatives (times less than PPD): ratio of PPD penetration to that of the compound
Method: Porcine ears were generously provided by the NUS Department of Surgery. The ears were frozen at −80° C. until use (up to 3 months) and thawed at room temperature on the day preceding the experiment. Prior to the experiment, the skin was separated from the cartilage and dermatomed to a thickness of ˜1.0 mm using an Acculan™ 3Ti dermatome (Aesculap, Inc., B. Braun, USA).
The PPD and derivatives were dissolved in deionized water at 1% w/v. The PPD and PPD derivatives 1-5 solutions were purged with argon gas to minimize oxidation of the donor solution.
Skin penetration studies were carried out using vertical Franz diffusion cells (PermeGear, USA) immersed in a 37° C. water bath. The donor and receptor volumes were 900 µL and 5 mL, respectively; the mean surface area of penetration was 0.64 cm^2. Upon insertion of the skin pieces into the Franz cells, the skin was equilibrated for 45 min with PBS in the receptor compartment. After equilibration, the skin's trans-epidermal water loss (TEWL) was measured using an Aquaflux AF300 (Biox, UK) to assess the integrity of the skin's stratum corneum barrier. The donor solution, consisting of PPD or derivative 1-5 (n=3 Franz cells each), was then added to the donor compartment and the penetration experiments were conducted for 8 h. The receptor solutions were continuously stirred with magnetic stirrers. At fixed time points, aliquots of 200 μL were taken from the receptor solution of each cell and the receptor solution topped up with 200 μL of fresh PBS. At the end of the experiment, the donor and receptor solutions were removed and the cells dismantled. For the purpose of mass balance on the PPD, PPD derivatives 1-5 the skin pieces and swabs of their outer surfaces were collected and stored in acetonitrile for PPD or derivative 1-5 extraction. The donor solution as well as PBS used to thoroughly wash each part of the Franz cells were also collected.
PPD, PPD derivatives 1-5 and metabolite concentrations in all permeation and mass balance samples were measured by LCMS. PPD steady state fluxes and permeability coefficients were calculated by fitting the solution to Fick's second law of diffusion at the steady state to the linear part of each experimental cumulative amount curve.
The validated method LCMS was applied to quantify PPD, PPD derivative 1-5 and metabolites from skin permeation study samples. FIGS. 3 and 4 show LCMS spectra for the identification of PPD and PPD derivatives 1 and 2 and metabolites from skin permeation study experiment.

CD86 = CD86 surface expression on THP-1 by flow cytometry; assay type: cell-based, human
Method: as §2, §3

CD54 = CD54 surface expression on THP-1 by flow cytometry; assay type: cell-based, human
Method: as §2, §3

| Structure (SMILES) | % of Cysteine depletion, Avg ([1]; 20 min) [%] | % of Cysteine depletion, Rep 2 ([1]; 20 min) [%] | % of Cysteine depletion, Rep 3 ([1]; 20 min) [%] | % of Cysteine depletion, Rep 1 ([1]; 20 min) [%] | % of Cysteine depletion, Avg ([1]; 24 h) [%] | % of Cysteine depletion, Rep 2 ([1]; 24 h) [%] | % of Cysteine depletion, Rep 3 ([1]; 24 h) [%] | % of Cysteine depletion, Rep 1 ([1]; 24 h) [%] | Reactivity Class ([1]; 20 min) | Reactivity Class ([1]; 24 h) | IL-8 expression (IL-8) | % of Lysine depletion, Avg ([2]; 20 min) [%] | % of Lysine depletion, Rep 2 ([2]; 20 min) [%] | % of Lysine depletion, Rep 3 ([2]; 20 min) [%] | % of Lysine depletion, Rep 1 ([2]; 20 min) [%] | % of Lysine depletion, Avg ([2]; 24 h) [%] | % of Lysine depletion, Rep 2 ([2]; 24 h) [%] | IC50 (HaCaT cells) [µM] | % Parent compound Penetrated (mean) ([6]; 1% W/V applied) [%] | % converted to metabolite (mean) ([6]; 1% W/V applied) [%] | other results |
| --- | --- | --- | --- | --- | --- | --- | --- | --- | --- | --- | --- | --- | --- | --- | --- | --- | --- | --- | --- | --- | --- |
| NC1=CC(=Nc2ccc(N)cc2)C(N)=CC1=Nc1ccc(N)cc1 [Bandrowski Base, reference compound] | 44.2 | 44.5 | 45.5 | 42.5 | 70.7 | 69.9 | 70.4 | 71.8 | High | High | increased expression | 6.7 | 7.89 | 2.54 | 9.58 | 5.6 | 6.0 | 6.09 | – | – | % of Lysine depletion, Rep 3 ([2]; 24 h): 5.5%; % of Lysine depletion, Rep 1 ([2]; 24 h): 5.4%; Reactivity Class ([2]; 20 min): Low; Reactivity Class ([2]; 24 h): Low; Solubility (in words) [3]: limited solubility in water; Sensitizing potential predicted from mean peptide depletion [4]: moderate sensitizer; Mean peptide depletion [4]: 38.9% |
| Nc1ccc(Nc2ccc(Nc3ccc(Nc4ccc(N)cc4)cc3)cc2)cc1 [PPD derivative 8, 4,4′-Bis[(4-aminophenyl)amino]diphenylamine] | – | – | – | – | – | – | – | – | – | – | increased expression | – | – | – | – | – | – | 6.92 | – | – | Sensitizing potential predicted from mean peptide depletion [5]: high sensitizing agents |
| CCCCCCOC(=O)c1cc(N)ccc1N [PPD derivative 15, Hexyl-2,5-diaminobenzoate] | – | – | – | – | – | – | – | – | – | – | do not stimulate IL-8 expression | – | – | – | – | – | – | – | 0.0001 | 0.0108 | ILT3 (inhibitory receptor) expression (ILT3): increased; Permeation less than PPD [6]: about 2 order of magnitude; recovery at 8 h, 1 % w/v ([6]; 1% W/V applied): 96.7%; Penetration profile PPD vs derivatives (times less than PPD) [6]: 1620; Expression of CD86 (CD86): not stimulated; Expression of CD54 (CD54): not stimulated; Improvement of cell viability in comparison to PPD 4 (HaCaT cells): about 5 times; IC50 (HaCaT cells; Homo sapiens, HaCaT, 72 h): 160 µM |
| Nc1ccc(Nc2ccc(N)cc2)cc1 [PPD derivative 1, 4,4′-Diaminodiphenylamine] | 41.5 | 40.5 | 41.5 | 42.6 | 69.4 | 69.6 | 69.3 | 69.5 | Moderate | High | increased expression | 7.79 | 6.48 | 9.01 | 7.89 | 23.8 | 28 | 49.3 | 0.00314 | 0.0104 | % of Lysine depletion, Rep 3 ([2]; 24 h): 22.3%; % of Lysine depletion, Rep 1 ([2]; 24 h): 21%; Reactivity Class ([2]; 20 min): Low; Reactivity Class ([2]; 24 h): Moderate; % Parent compound Recovery (mean) ([6]; 1% W/V applied): 93.85%; Penetration profile PPD vs derivatives (times less than PPD) ([6]; listed as PPD 1): 51 and 51.6; Fold increase in IC50 compared to PPD (HaCaT cells): ~2 fold; Solubility (in words) [3]: showed solubility in a mixture of 10% methanol in water; Sensitizing potential predicted from mean peptide depletion [4]: high sensitizing agents |
| Cc1ccc(NCc2ccc(-c3ccc(Nc4ccc(N)cc4)cc3)cc2)cc1 [PPD derivative 9, 4-Amino-4′-[(4-tolylaminomethyl)phenyl]diphenylamine] | – | – | – | – | – | – | – | – | – | – | – | – | – | – | – | – | – | 6.8 | – | – | Sensitizing potential predicted from mean peptide depletion [5]: weak sensitizer; Mean peptide depletion [4]: 17.9% |
| CCCCCCOC(=O)c1cc(Nc2ccc(N)cc2)ccc1N [PPD derivative 6, hexyl 2-amino-5-((4-aminophenyl)amino)benzoate] | – | – | – | – | – | – | – | – | – | – | do not stimulate IL-8 expression | – | – | – | – | – | – | – | 0.00015 | 0.01 | ILT3 (inhibitory receptor) expression (ILT3): increased; Permeation less than PPD [6]: about 2 order of magnitude; recovery at 8 h, 1 % w/v ([6]; 1% W/V applied): 95.4%; Penetration profile PPD vs derivatives (times less than PPD) [6]: 1080; Expression of CD86 (CD86): not stimulated; Expression of CD54 (CD54): not stimulated; IC50 (HaCaT cells; Homo sapiens, HaCaT, 72 h): 10.5 µM |
